Columns and labels:
Format in all cases: physicochemical
[1] = Moisture sorption (hygroscopicity), water sorption and desorption; details: for form change at the completion of the moisture sorption run by PXRD: 25° C.; for Weight Gain (%) at 25° C., 60% RH: comparative summary of Forms 1, 2, 6 and 8
Procedure: Water sorption and desorption studies were conducted on an automated vapor sorption analyzer (TA instruments Q5000 SA). The microbalance was calibrated using a 100 mg standard weight. The relative humidity (RH) sensor was calibrated at 5.0, 11.3, 32.8, 52.8, 75.3, and 84.3% RH (25° C.) using saturated salt solutions. Approximately 10-20 mg of the powder sample was placed in the quartz sample holder and dried at 3% RH at 60° C. The attainment of equilibrium was assumed when the weight change of the sample was <0.001 wt % in 5 min or by a maximum equilibration time of 300 minutes. […] Again, the attainment of equilibrium was assumed when the weight change of the sample was <0.001 wt % in 5 min or by a maximum equilibration time of 300 minutes. The weight gain at 60% RH is based on the weight after the initial drying step.
Water sorption and desorption studies of PF-07220060 monohydrate (Form 2), prepared as described in Example 2, were conducted according to General Method 6.
Water sorption and desorption studies of PF-07220060 hydrate (Form 1), prepared as described in Example 5B, were conducted according to General Method 6.
Comparative hygroscopicity experiments were performed using moisture sorption analysis according to General Method 6. PF-07220060 Forms 1, 2, 6, and 8 were evaluated using moisture sorption at 25° C., 60% RH. A form change at the completion of the run was not detected for any of the forms by PXRD.

[2] = Thermal stability by Differential Scanning Calorimetry (DSC)
Procedure: Modulated Differential scanning calorimetry (DSC) measurements were performed with Discovery DSC (TA instruments) equipped with a refrigerated cooling accessory. All the experiments were performed in standard/Tzero aluminum pans. The cell constant was determined using indium and temperature calibration was performed using indium and tin as standards. All the measurements were done under continuous dry nitrogen purge (50 mL/min). Approximately 1-5 mg of solid sample was weighed into a Tzero aluminum pan, sealed non-hermetically and heated from −40° C. to 220° C. at 10° C./min heating rate. The experimental data were analyzed using commercially available software (TA Universal Analysis 2000/Trios software, TA Instruments).
(§1) Thermal stability data were obtained through thermogravimetric analysis (TGA) according to General Method 4, and Differential Scanning Calorimetry (DSC) scan according to General Method 5A.

[3] = Slurry conversion in 10% MeCN/water, form by PXRD; details: room temperature
Procedure: Crystalline PF-07220060 hydrate (Form 1) (25 mg) prepared as described in Example 1, Vial A was suspended in 10% MeCN/water (0.5 mL) and slurried at room temperature for […].

[4] = Competitive slurry experiments in 2-propanol/1% water; details: 2-propanol/1% water, room temperature, 15 hours, PXRD
Procedure: Competitive slurry experiments were performed between Form 1 and Form 2 (Entry 1), and between Form 6 and Form 2 (Entry 2), in 2-propanol/1% water. Entry 1: […] The solids were collected with vacuum filtration and analyzed with PXRD. PXRD data was consistent with PF-07220060 monohydrate (Form 2). Entry 2: […] The solids were collected with vacuum filtration and analyzed with PXRD. PXRD data was consistent with PF-07220060 monohydrate (Form 2).

[5] = Thermal stability by thermogravimetric analysis (TGA)
Procedure: Thermogravimetric analysis was conducted using a Discovery TGA (TA instruments) thermogravimetric analyzer. Samples of approximately 10 mg were weighed into aluminum pans and heated from ambient ([…]) to 250° C. at 10° C./minute heating rate under nitrogen purge (10 mL/min for both sample chamber and balance).
as §1

CC(C)n1c(C(C)(C)O)nc2c(F)cc(-c3nc(N[C@@H]4CCOC[C@H]4O)ncc3Cl)cc21 [Form 1, 1,5-anhydro-3-({5-chloro-4-[4-fluoro-2-(2-hydroxypropan-2-yl)-1-(propan-2-yl)-1H-benzimidazol-6-yl]pyrimidin-2-yl}amino)-2,3-dideoxy-D-threo-pentitol]
form change at the completion of the moisture sorption run by PXRD ([1]; 60% RH): not detected | Weight gain (%) ([1]; 25 °C, RH 0%, listed as PF-07220060 hydrate (Form 1)): 0.05% | Weight gain (%) ([1]; 25 °C, RH 10%, desorption, listed as PF-07220060 hydrate (Form 1)): 1.26% | Weight gain (%) ([1]; 25 °C, RH 10%, sorption, listed as PF-07220060 hydrate (Form 1)): 1.23% | Weight gain (%) ([1]; 25 °C, RH 20%, desorption, listed as PF-07220060 hydrate (Form 1)): 2.38% | Weight gain (%) ([1]; 25 °C, RH 20%, sorption, listed as PF-07220060 hydrate (Form 1)): 2.34% | Weight gain (%) ([1]; 25 °C, RH 30%, desorption, listed as PF-07220060 hydrate (Form 1)): 2.87% | Weight gain (%) ([1]; 25 °C, RH 30%, sorption, listed as PF-07220060 hydrate (Form 1)): 2.84% | Weight gain (%) ([1]; 25 °C, RH 40%, desorption, listed as PF-07220060 hydrate (Form 1)): 3.13% | Weight gain (%) ([1]; 25 °C, RH 40%, sorption, listed as PF-07220060 hydrate (Form 1)): 3.10% | Weight gain (%) ([1]; 25 °C, RH 50%, desorption, listed as PF-07220060 hydrate (Form 1)): 3.30% | Weight gain (%) ([1]; 25 °C, RH 50%, sorption, listed as PF-07220060 hydrate (Form 1)): 3.26% | Weight gain (%) ([1]; 25 °C, RH 60%, desorption, listed as PF-07220060 hydrate (Form 1)): 3.41% | Weight gain (%) ([1]; 25 °C, RH 60%, sorption, listed as PF-07220060 hydrate (Form 1)): 3.37% | Weight gain (%) ([1]; 25 °C, RH 70%, desorption, listed as PF-07220060 hydrate (Form 1)): 3.49% | Weight gain (%) ([1]; 25 °C, RH 70%, sorption, listed as PF-07220060 hydrate (Form 1)): 3.46% | Weight gain (%) ([1]; 25 °C, RH 80%, desorption, listed as PF-07220060 hydrate (Form 1)): 3.55% | Weight gain (%) ([1]; 25 °C, RH 80%, sorption, listed as PF-07220060 hydrate (Form 1)): 3.53% | Weight gain (%) ([1]; 25 °C, RH 90%, listed as PF-07220060 hydrate (Form 1)): 3.61% | Weight gain (%) ([1]; 60 °C, RH 0% (initial drying step)): 0.00% | Weight Gain (%) at 25° C., 60% RH [1]: ~3% | Thermal stability via DSC (° C.) ([2]; listed as Form 1 (hydrate)): 0 °C | form after slurry by PXRD [3]: converted to PF-07220060 monohydrate (Form 2) | Out-going form [4]: converted to Form 2 | Thermal stability via TGA (° C.) ([5]; listed as Form 1 (hydrate)): 20 °C

CC(C)n1c(C(C)(C)O)nc2c(F)cc(-c3nc(N[C@@H]4CCOC[C@H]4O)ncc3Cl)cc21 [Form 6, 1,5-anhydro-3-({5-chloro-4-[4-fluoro-2-(2-hydroxypropan-2-yl)-1-(propan-2-yl)-1H-benzimidazol-6-yl]pyrimidin-2-yl}amino)-2,3-dideoxy-D-threo-pentitol]
form change at the completion of the moisture sorption run by PXRD ([1]; 60% RH): not detected | Weight Gain (%) at 25° C., 60% RH [1]: <1% | hygroscopicity relative to Form 8 and Form 1 ([1]; moisture sorption at 25° C., 60% RH): reduced hygroscopicity | thermal stability relative to Form 1 and Form 8 ([2]; TGA and DSC): improved thermal stability | Thermal stability via DSC (° C.) ([2]; listed as Form 6 (anhydrous)): 195 °C | Out-going form [4]: converted to Form 2 | Thermal stability via TGA (° C.) ([5]; listed as Form 6 (anhydrous)): 195 °C

CC(C)n1c(C(C)(C)O)nc2c(F)cc(-c3nc(N[C@@H]4CCOC[C@H]4O)ncc3Cl)cc21 [Form 8, 1,5-anhydro-3-({5-chloro-4-[4-fluoro-2-(2-hydroxypropan-2-yl)-1-(propan-2-yl)-1H-benzimidazol-6-yl]pyrimidin-2-yl}amino)-2,3-dideoxy-D-threo-pentitol]
form change at the completion of the moisture sorption run by PXRD ([1]; 60% RH): not detected | Weight Gain (%) at 25° C., 60% RH [1]: ~2% | Thermal stability via DSC (° C.) ([2]; listed as Form 8 (amorphous)): −10 °C | Thermal stability via TGA (° C.) ([5]; listed as Form 8 (amorphous)): 20 °C
